Test results reported in patent US12527772B2, “Pharmaceutical combination comprising ponesimod” (Vanda Pharmaceuticals Inc., priority 2017, dated 2026).

Experiments:
Assay type in all cases: in vivo
lymphocytes = assay: first pilot experiment, rat EAE model: hematology, lymphocyte counts; settings: ponesimod 30 mg/kg oral q.d.; over 24 hours
Method: (§1) Groups of 10 rats are dosed orally starting at the day of disease induction (day 0) with different doses of teriflunomide in the range between 1 and 10 mg/kg once daily (q.d.) or with 30 mg/kg ponesimod q.d. Clinical scores are assessed on a daily basis and disease development is compared between vehicle-treated rats and rats receiving teriflunomide or ponesimod (vehicle: 0.5% Methylcellulose/0.5% Tween® 80/water). In parallel, body weights of the rats are monitored on a daily basis to follow general health. Hematology parameters, including lymphocyte counts, are measured at 3 different time points: 6 and 24 hours after the oral gavage at day 20 and at the termination of the experiment at day 21, 3 hours post dosing. Plasma samples can be taken for compound concentration determination and for the measurement of protein markers. Based on the first pilot experiment described above one dose of teriflunomide is selected for the combination efficacy experiment.

[1] = test system: acute monophasic rat EAE model; assay: combination efficacy experiment, acute monophasic rat EAE model: clinical scores; settings: for efficacy on the clinical course of EAE (average clinical score, FIG. 1): each compound alone, ponesimod 30 mg/kg q.d., teriflunomide 1 mg/kg q.d., from day 0, 21 days study; for severity of the disease (maximal clinical score reached over the 21 days study, FIG. 2): ponesimod 30 mg/kg q.d. and/or teriflunomide 1 mg/kg q.d. from day 0
Method: Female Lewis rats are immunized with an emulsion of myelin basic protein (MBP) from Guinea pig in complete Freund's adjuvant. A total of 200 micrograms of MBP is injected per rat at two sites subcutaneously (right paw and base of tail). Within 10 days the rats develop signs of paralysis which will be graded on a scale from 0 to 15 assessing the tail and each limb individually according to the method originally described by Weaver A. et al., FASEB J., 2005, 19(12): 1668-1670. The disease takes an acute monophasic course and is self-remitting. Usually by day 21 clinical scores reach values below 3.0.
as §1, with “markers.” for “markers. Based on the first pilot experiment described above one dose of teriflunomide is selected for the combination efficacy experiment.”
The combination efficacy experiment is performed in the same rat EAE model as described for the first pilot experiment. It consists of four treatment groups: • 1. Vehicle (0.5% Methylcellulose/0.5% Tween® 80/water) q.d., from day 0 • 2. Teriflunomide (1 mg/kg) q.d., from day 0 • 3. Ponesimod (30 mg/kg) q.d., from day 0 • 4. Teriflunomide (1 mg/kg) q.d., from day 0+ponesimod (30 mg/kg) q.d., from day 0
In life and termination endpoints are the same as described for the first pilot experiment.
Data collected in the pilot experiment are similar to those obtained in the combination study and therefore are used to increase the monotherapy groups size in order to increase sensitivity as described by Bate S. et al., PLoS One., 2014, 9(12): e114872. […] When combined, the two compounds benefit from each other.

[2] = combination efficacy experiment, acute monophasic rat EAE model: body weight; settings: ponesimod 30 mg/kg q.d. from day 0; over the 21 days study
Method: as §1, with “markers. The combination efficacy experiment is performed in the same rat EAE model as described for” for “markers. Based on”, “pilot experiment. It consists of four treatment groups: • 1. Vehicle (0.5% Methylcellulose/0.5% Tween® 80/water) q.d., from day 0 • 2. Teriflunomide (1 mg/kg) q.d., from day 0 • 3. Ponesimod (30 mg/kg) q.d., from day 0 • 4. Teriflunomide (1 mg/kg) q.d., from day 0+ponesimod (30 mg/kg) q.d., from day 0 In life and termination endpoints are the same as” for “pilot experiment”, “described” for “described above one dose of teriflunomide is selected”, “the first pilot” for “the combination efficacy”, “experiment. […]” for “experiment.”

[3] = test system: acute monophasic models of experimental autoimmune encephalomyelitis (EAE); assay: first pilot experiment, acute monophasic rat EAE model: clinical scores; settings: female Lewis rats, teriflunomide 1 mg/kg oral q.d. from day 0
Method: The efficacy of teriflunomide and ponesimod in acute monophasic models of experimental autoimmune encephalomyelitis (EAE) can be determined in a pilot experiment. Female Lewis rats are immunized with an emulsion of myelin basic protein (MBP) from Guinea pig in complete Freund's adjuvant. A total of 200 micrograms of MBP is injected per rat at two sites subcutaneously (right paw and base of tail). Within 10 days the rats develop signs of paralysis which will be graded on a scale from 0 to 15 assessing the tail and each limb individually according to the method originally described by Weaver A. et al., FASEB J., 2005, 19(12): 1668-1670. The disease takes an acute monophasic course and is self-remitting. Usually by day 21 clinical scores reach values below 3.0. Groups of 10 rats are dosed orally starting at the day of disease induction (day 0) with different doses of teriflunomide in the range between 1 and 10 mg/kg once daily (q.d.) or with 30 mg/kg ponesimod q.d. Clinical scores are assessed on a daily basis and disease development is compared between vehicle-treated rats and rats receiving teriflunomide or ponesimod (vehicle: 0.5% Methylcellulose/0.5% Tween® 80/water). In parallel, body weights of the rats are monitored on a daily basis to follow general health. Hematology parameters, including lymphocyte counts, are measured at 3 different time points: 6 and 24 hours after the oral gavage at day 20 and at the termination of the experiment at day 21, 3 hours post dosing. Plasma samples can be taken for compound concentration determination and for the measurement of protein markers. Based on the first pilot experiment described above one dose of teriflunomide is selected for the combination efficacy experiment.

[4] = teriflunomide alone 1 mg/kg q.d. from day 0

Row | SMILES | reduction of lymphocytes (lymphocytes) | efficacy on the clinical course of EAE (average clinical score, FIG. 1) [1] | severity of the disease (maximal clinical score reached over the 21 days study, FIG. 2) [1] | effect on clinical score during the ascending phase (FIG. 1) ([1]; ponesimod 30 mg/kg q.d. from day 0) | body weight loss (FIG. 3 and FIG. 4) [2] | disease onset [3] | efficacy on EAE scores [3] | severity of the disease [3] | disease onset (FIG. 1) [1, 4] | efficacy on EAE scores (FIG. 1 and FIG. 2) [1, 4]
1 | CCC/N=C1\S/C(=C\c2ccc(OC[C@H](O)CO)c(Cl)c2)C(=O)N1c1ccccc1C [ponesimod, (R)-5-[3-chloro-4-(2,3-dihydroxy-propoxy)-benz[Z]ylidene]-2-([Z]-propylimino)-3-o-tolyl-thiazolidin-4-one] | partial reduction of lymphocytes | moderate efficacy | no effect | moderate effect | reduction in body weight loss |  |  |  |  | 
2 | C/C(O)=C(\C#N)C(=O)Nc1ccc(C(F)(F)F)cc1 [teriflunomide, (Z)-2-cyano-3-hydroxy-but-2-enoic acid-(4-trifluoromethylphenyl)-amide] |  | moderate efficacy | no effect |  |  | strong delay of disease onset | partial efficacy | without affecting the severity of the disease | strong delay of disease onset | partial efficacy
